Assay results as given in US20110105380A1, “Protection of Nano-Scale Particles from Immune Cell Uptake” (THE TRUSTEES OF THE UNIVERSITY OF PENNSYLVANIA, priority 2009, published 2011).

Tested on: THP-1 macrophages
Test: Phagocytosis of IgG-opsonized streptavidin beads with or without hCD47 by THP-1 macrophages
Format: cell-based, human
Method: The extracellular immunoglobulin-like domains of human CD47 (hCD47) was recombinantly expressed with a spacer domain (Brown et al., 1994, Protein Eng. 7:515-21; Brown et al., 1998, J. Exp. Med. 188:2083-90) plus a C-terminal biotinylation site. […] The beads were opsonized by pretreatment with anti-streptavidin to again induce FcR-mediated phagocytosis (for 45 minutes at 37° C.), and non-engulfed beads were detected with a flourescein anti-Fc against the IgG-opsonin. The number of adherent IgG-opsonized beads per phagocyte was independent of hCD47 (not shown).
For phagocytosis assays, macrophages were plated in 4 cm^2, or 2 cm^2 Lab-Tek II Chambered Coverglass (Nalge Nunc International, Naperville, Ill.) at 1.5×10^5/cm^2. Streptavidin polystyrene beads of different radius: 3.5 μm, 1.1 μm, 160 nm (Spherotech) and 100 nm (Ademtech) were added to macrophages at a ratio of 2:1, 20:1, 277:1, and 2206:1 respectively and incubate at 37° C. for 45 min. […] Non-phagocytosed beads were washed with PBS. Cells were fixed with 5% formaldehyde (Fisher Scientific) for 5 minutes, followed by immediate replacement with PBS. For differentiation of non-internalized beads, beads were labeled with a primary antibody, rabbit anti-streptavidin (Sigma) at 1:1000 in PBS for 20 min at 25° C. A second antibody, anti-rabbit R-PE (Sigma) was added at 1:1000 in PBS to the cells and incubated for an additional 20 minutes at 25° C. Cells were then washed with PBS/0.4% BSA and then quantified by light and fluorescent microscopy. At least 200 cells were scored per well and experiments were repeated at least three times.
For stimulated phagocytosis assays, beads with or without CD47 were incubated with rabbit anti-streptavidin as the IgG opsonin. Beads were opsonized at a concentration 1:1000 for 30 min at 25° C. Opsonized beads were washed 2× and resuspended in 50 μl of PBS/0.4% BSA. Phagocytes were washed with PBS and uningested beads were labeled as described above.
For cytoskeletal involvement at the phagocytic synapse, streptavidin beads opsonized with rabbit anti-streptavidin FITC. Opsonized beads of different sizes were added to THP-1 cells, PMA treated and immediately placed at 4° C. for 10 min to synchronize phagocytosis. […] For studies involving blebbistatin (EMD Biosciences), macrophages were treated for 10 min at 4° C. prior to temperature increase to 37° C. or for 45 min and 37° C. Macrophages treated with DMSO were used to verify no solvent effects.
Beads were opsonized at saturating densities of IgG, and over a 20-fold range of CD47 densities, the number of internalized beads per THP-1 was measured. […] The normal level of CD47 density found on human RBC (Subramanian et al., 2006, Blood 107(6):2548-2556) was indicated by the vertical bars and humans with certain Rhnull phenotypes with reduced levels of CD47 (Mouro-Chanteloup et al., 2003, Blood 101 (1):338-344; Arndt et al., 2004, Br. J. Haematol. 125(3):412-4) was indicated by the vertical bars. The minimum number of CD47 inhibition appears to be consistent across a 30-fold particle size range as depicted by the vertical bars.

`Cc1ccc2c(c1)C(=O)C1(O)CCN(c3ccccc3)C1=N2` (stereo not drawn) [blebbistatin] was tested, and the “uptake of 100 nm IgG-opsonized particles” value (THP-1 treated with 50 μM blebbistatin vs DMSO) was “decrease in uptake”, the “phagocytosis of CD47-null beads” value (blebbistatin 50 μM, 10 min pretreatment of THP-1) was “inhibited phagocytosis of CD47-null beads to a level similar as hCD47 beads” and the “uptake of 1.1 μm IgG-opsonized particles” value (blebbistatin treatment, FIG. 16D) was “comparable results”.
